Consider three compounds from patent US8178579B2, “Dioxanes and uses thereof” (President and Fellows of Harvard College, priority 2001, dated 2012).

Data set [1] is described as follows: solubility in yeast medium. It is filed as physicochemical. The note with it: higher concentrations.
In data set [2] the target is T1, Ure2p (Saccharomyces cerevisiae, UniProt P23202).
T1 construct: endogenous in cells; host or cells: yeast strain DB26-3A (MAT-a ura3-52 ade2 PUT1-lacZ)
T1 sequence (P23202 1-354): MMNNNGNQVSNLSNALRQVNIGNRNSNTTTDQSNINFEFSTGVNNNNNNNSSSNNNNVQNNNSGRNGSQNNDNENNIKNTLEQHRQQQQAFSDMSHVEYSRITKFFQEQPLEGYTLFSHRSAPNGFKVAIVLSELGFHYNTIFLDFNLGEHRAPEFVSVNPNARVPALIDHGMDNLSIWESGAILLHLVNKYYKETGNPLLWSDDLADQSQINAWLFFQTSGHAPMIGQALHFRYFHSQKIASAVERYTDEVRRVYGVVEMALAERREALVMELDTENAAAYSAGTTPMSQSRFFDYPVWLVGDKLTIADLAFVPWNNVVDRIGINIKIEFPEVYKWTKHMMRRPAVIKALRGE
Briefly: PUT1-lacZ reporter β-galactosidase assay. It is filed as cell-based. Particulars: yeast in YPD, 30 °C, 60-90 min; rapamycin 50 nM. On the procedure:
(§1) FIG. 24 depicts studies in vivo, dose response and structure-activity relationships of uretupamine. (A) A yeast strain (DB26-3A) growing in YPD medium expressing a PUT1-lacZ reporter was treated with 50 nM rapamycin or with a compound that had been detected to bind to labelled Ure2p on a small-molecule microarray. After 90 min of treatment at 30° C., a standard liquid b-galactosidase assay was performed. Data are expressed in fold Miller units compared with treatment with 50 nM rapamycin for 90 minutes. DB26-3A (MAT-a ura3-52 ade2 PUT1-lacZ) was a gift from M. Brandriss. Vehicle: samples treated with N,N-dimethylformamide (DMF), the vehicle into which library compounds were dissolved (B): Uretupamine A was resynthesized and tested in the b-galactosidase assay by using the PUT1-lacZ reporter at the concentrations indicated for 60 min at 30 C in YPD medium. (C) Compounds derived from the uretupamine A structure were synthesized to explore structure-activity relationships. Listed are b-galactosidase assay results of treatment with each compound at 100 μM (asterisk designates 50 μM) for 60 min at 30 C in YPD medium. Data are in percentage Miller units compared with treating with 50 nM rapamycin for 60 min. […] (D) Binding of uretupamine B to Ure2p was determined by using surface plasmon resonance (BIAcore 3000) to have a dissociation constant of 7.5 μM. […]

Data set [3] concerns the target T1, Ure2p. Briefly: surface plasmon resonance (BIAcore 3000) binding to immobilized Ure2p. Also on record: species or system yeast. The note with it: PBS/Tween-20 with 10% DMF, read-out: equilibrium dissociation constant for binding to Ure2p. On the procedure: as §1
In general terms: SPR reads the build-up and loss of mass on a sensor chip optically.

In data set [4] the test system is Ure2p-controlled genes. Briefly: whole-genome transcription profiling of yeast strains. The note with it: 100 μM, 30 min. Format: cell-based. How it is done: FIG. 25 depicts transcription profiling of treatment with uretupamine. (A) The left microarray corresponds to wild-type cells (PM38) treated with vehicle (DMF) versus wild type (w.t.) cells treated for 30 min with uretupamine A at 100 μM. The right microarray corresponds to ure2Δ cells (PH2) treated with vehicle versus ure2Δ cells treated for 30 min with uretupamine A at 100 μM. Profiles were obtained as described (Hardwick et al. Proc. Natl. Acad. Sci. USA 1999, 96, 14866-14870). At the right are shown specific gene inductions of some URE2-dependent genes from the microarrays. PM38 (MATaleu2-3,112 ura3-52), PM71 (MA4Taleu2-3, 112 ura3-52 gln3Δ5::LEU2), MS221 (MATaura3-52 nil1::hisG), PH2 (MATaleu2-3, 112 ura3-52 ure2Δ12::URA3) were gifts from B. Magasanik and M. Brandriss. (B) The transcription profiles of wild-type cells (PM38), ure2Δ cells (PH2), gln3Δ cells (PM71) and nil1Δ cells (MS221) grown in YPD medium treated for 30 min with 100 μM uretupamine B were obtained. The geometric means of gene inductions of the sets listed are shown. (C) An analysis was performed based on treating individual profiles as high-dimensional vectors and then examining the ratios of their magnitudes as a measure of relative activity (Shamji et al. Curr. Biol. 2000, 10, 1574-1581; Kuruvilla et al. Genome Biol. 2002, 3(3), 0011.1-0011.11).
To determine the precise effects and specificity of uretupamine, whole-genome transcription profiling was used in wild-type cells as well as an otherwise isogenic ure2D strain-a ‘targetless’ strain (Marton et al. Nature Med 1998, 4, 1293-1301). […] The expression of other genes (including GAP1, MEP2, AGP1, BAT2 and DAL5) controlled by Ure2p was essentially unchanged (FIG. 25A,B).

Data set [5] addresses T2, HDAC1 (Homo sapiens, UniProt Q13547).
T2 construct: made in house; host or cells: TAg-Jurkat cells, transient transfection, then immunoprecipitation
In words: HDAC assay, [3H]acetate-incorporated histones with immunoprecipitated FLAG-tagged HDAC1. It is filed as biochemical. Particulars: calculated IC50, data in duplicate, at least two experiments; read-out: IC50 against HDAC1. How it is done:
(§2) Cell culture and Transfections. TAg-Jurkat cells were transfected by electroporation with 5 μg of FLAG-epitope-tagged pBJ5 constructs (as described in ref. 5c) for expression of recombinant proteins. Cells were harvested 48 h posttransfection.
HDAC assays. [^3H]Acetate-incorporated histones were isolated from butyrate-treated HeLa cells by hydroxyapatite chromatography (as described in Tong, et al. Nature 1997, 395, 917-921.) Immunoprecipitates were incubated with 1.4 μg (10,000 dpm) histones for 3 h at 37° C. HDAC activity was determined by scintillation counting of the ethyl acetate-soluble [^3H]acetic acid (as described in Taunton, et al., Science 1996, 272, 408-411). Compounds were added in DMSO such that final assay concentrations were 1% DMSO. IC50s were calculated using Prism 3.0 software. Curve fitting was done without constraints using the program's Sigmoidal-Dose Response parameters. All data points were acquired in duplicate and IC50s are calculated from the composite results of at least two separate experiments.

Data set [6] has as its target T3, HDAC6 (Homo sapiens, UniProt Q9UBN7).
T3 sequence (Q9UBN7 1-1215): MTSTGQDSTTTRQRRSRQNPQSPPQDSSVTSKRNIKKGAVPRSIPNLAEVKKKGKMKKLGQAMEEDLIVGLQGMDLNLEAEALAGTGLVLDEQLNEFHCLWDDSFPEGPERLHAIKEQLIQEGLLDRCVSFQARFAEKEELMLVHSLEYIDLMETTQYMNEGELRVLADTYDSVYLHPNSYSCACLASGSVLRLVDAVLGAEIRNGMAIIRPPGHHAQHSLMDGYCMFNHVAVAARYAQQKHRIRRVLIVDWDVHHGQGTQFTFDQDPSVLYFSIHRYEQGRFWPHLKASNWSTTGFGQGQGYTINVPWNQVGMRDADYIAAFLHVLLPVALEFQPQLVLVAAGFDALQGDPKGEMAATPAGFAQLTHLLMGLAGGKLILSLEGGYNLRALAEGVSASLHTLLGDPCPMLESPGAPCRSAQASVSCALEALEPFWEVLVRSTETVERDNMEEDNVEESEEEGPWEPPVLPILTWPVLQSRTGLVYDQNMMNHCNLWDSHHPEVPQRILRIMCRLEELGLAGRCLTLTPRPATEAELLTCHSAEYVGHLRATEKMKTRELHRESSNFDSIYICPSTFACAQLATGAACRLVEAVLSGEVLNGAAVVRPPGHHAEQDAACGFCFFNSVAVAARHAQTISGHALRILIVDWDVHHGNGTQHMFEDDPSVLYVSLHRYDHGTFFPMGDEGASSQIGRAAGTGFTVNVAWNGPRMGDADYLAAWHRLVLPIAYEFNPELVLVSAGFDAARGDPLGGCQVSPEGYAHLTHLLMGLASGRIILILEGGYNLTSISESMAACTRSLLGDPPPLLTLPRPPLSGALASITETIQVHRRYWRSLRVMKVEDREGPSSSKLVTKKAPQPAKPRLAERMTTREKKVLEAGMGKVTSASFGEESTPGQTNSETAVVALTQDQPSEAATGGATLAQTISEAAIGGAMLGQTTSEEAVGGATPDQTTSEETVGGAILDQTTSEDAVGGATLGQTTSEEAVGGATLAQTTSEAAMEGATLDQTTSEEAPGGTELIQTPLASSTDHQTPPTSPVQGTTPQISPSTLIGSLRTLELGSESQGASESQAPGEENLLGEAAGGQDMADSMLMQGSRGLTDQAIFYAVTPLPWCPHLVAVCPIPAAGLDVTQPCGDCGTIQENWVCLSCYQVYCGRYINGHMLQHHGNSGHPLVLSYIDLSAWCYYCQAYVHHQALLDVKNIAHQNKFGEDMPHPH
Briefly: HDAC assay, [3H]acetate-incorporated histones with immunoprecipitated FLAG-tagged HDAC6 (HDAC6F). It is filed as biochemical. Also on record: made in house; host or cells: TAg Jurkat cells, transient transfection, anti-FLAG M2 immunoprecipitation. The note with it: calculated IC50, data in duplicate, at least two experiments; read-out: IC50 against HDAC6. How it is done:
as §2
HDAC assays. […] Compounds were added in DMSO such that final assay concentrations were 1% DMSO. IC50s were calculated using Prism 3.0 software. Curve fitting was done without constraints using the program's Sigmoidal-Dose Response parameters. All data points were acquired in duplicate and IC50s are calculated from the composite results of at least two separate experiments.
Tubulin and MAPs were isolated from bovine brain as described [See http://mitchison.med.harvard.edu/protocols/tubprep.html]. Whole brain and fractions from phosphocellulose chromatography were blotted for HDAC6 and acetylated α-tubulin. Cultured hippocampal neurons from dissociated 1-day old rat brains were transfected with an enhanced green fluorescent protein (EGFP)-actin construct at 4-5 days using the calcium phosphate method [E. N. Star, D. J. Kwiatkowski and V. N. Murthy, Nat. Neurosci. […] K. Miranti and M. E. Greenberg, J. Neurosci. […] Transfected cultures were allowed to grow for at least 48 h before the addition of experimental compounds.
[^3H]Acetate-incorporated histones were isolated from butyrate-treated HeLa cells as described [J. Taunton, C. […] Immunoprecipitates were incubated with acetylated histones and HDAC activity determined by scintillation counting as described [J. Taunton, C. […] TDAC assays were performed with immunoprecipitates using MAP-stabilized microtubules polymerized from MAP-rich tubulin fraction as described [C. […] Reactions were incubated (2 h) at 37° C., then incubated on ice (15 min).

The subject of data set [7] is HeLa cells. In words: high throughput microscopy of HeLa cells. It is filed as cell-based. Particulars: single-compound assays. An excerpt: The cellular basis of these phenotypes has not been investigated. No phenotypes consistent with mitotic arrest were observed.

Molecules are shown by their SMILES.

T2 sequence (Q13547 whole entry): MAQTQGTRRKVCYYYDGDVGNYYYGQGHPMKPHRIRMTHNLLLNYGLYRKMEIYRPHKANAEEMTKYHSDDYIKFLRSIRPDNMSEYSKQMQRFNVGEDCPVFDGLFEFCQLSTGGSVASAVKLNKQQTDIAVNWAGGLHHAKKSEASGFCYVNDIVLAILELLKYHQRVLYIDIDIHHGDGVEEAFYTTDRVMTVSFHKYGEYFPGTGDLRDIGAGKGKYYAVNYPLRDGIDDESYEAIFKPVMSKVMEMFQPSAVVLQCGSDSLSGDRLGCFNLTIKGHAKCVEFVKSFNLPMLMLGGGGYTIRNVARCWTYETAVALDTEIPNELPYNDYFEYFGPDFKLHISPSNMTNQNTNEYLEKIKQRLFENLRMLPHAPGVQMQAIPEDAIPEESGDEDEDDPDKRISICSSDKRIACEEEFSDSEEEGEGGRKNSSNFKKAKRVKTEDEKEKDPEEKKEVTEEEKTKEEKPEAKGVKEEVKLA

In the case of `NCc1ccc([C@@H]2O[C@H](CSc3nc(-c4ccccc4)c(-c4ccccc4)o3)[C@@H](c3ccccc3)[C@H](c3ccc(CO)cc3)O2)cc1` (relative stereo) [uretupamine A], the “solubility in yeast medium” value in data set [1] is recorded as “poor solubility at higher concentrations in yeast medium”. The “activation of PUT1-lacZ reporter” value in data set [2] was “gave a concentration dependent dose response that at higher concentrations approached the levels of reporter gene activation induced by rapamycin”. The Kd in data set [3] came out at 18.1 µM. In data set [4], the “gene induction in ure2Δ strain” value was “little or no effect on either set of genes” and the “gene induction in wild-type cells” value is “upregulated only a subset of genes”.

Turning to `NCc1ccc([C@@H]2O[C@H](CSc3nc(-c4ccccc4)c(-c4ccccc4)o3)C[C@H](c3ccc(CO)cc3)O2)cc1` (relative stereo) [uretupamine B], in data set [1], the “solubility in yeast medium” value is listed as “more soluble derivative”. In data set [2], the “activation of PUT1-lacZ reporter” value is “more potent than uretupamine A”. For the same compound, the Kd in data set [3] is 7.5 µM. Besides, in data set [4], the “gene induction in gln3Δ strain” value was “deleting GLN3 had little effect on the actions of uretupamine”, the “gene induction in nil1Δ strain” value is reported as “deleting NIL1 abrogated its actions”, the “gene induction in ure2Δ strain” value is on record as “little or no effect on either set of genes” and the “gene induction in wild-type cells” value is on record as “upregulated only a subset of genes”.

For `Cc1ccc(S(=O)(=O)N[C@@H](Cc2ccccc2)C(=O)Nc2cccc(C3O[C@H](CN4CCC(O)(c5ccc(Cl)cc5)CC4)[C@H](C)[C@H](c4ccc(CO)cc4)O3)c2)cc1` (stereo partly drawn) [compound 11], the IC50 in data set [5] and in data set [6] was above 50 µM each time. Further, the “phenotype in HeLa cells by microscopy” value in data set [7] is on record as “cell detachment”.

As usually defined, the IC50 is the concentration needed to halve the response being measured.
